Experimental findings from ChEMBL document CHEMBL6074700, “Furan- and Furopyrimidine-Based Derivatives: Synthesis, VEGFR-2 Inhibition, and In Vitro Cytotoxicity” (ACS Med Chem Lett, 2024) are described below.

The test system of one assay is HepG2. Put plainly: Antiproliferative activity against human HepG2 cells incubated for 72 hrs. To be noted: HepG2, 72 h.
The test system of another assay is MCF7. Put plainly: Antiproliferative activity against human MCF7 cells incubated for 72 hrs. The note with it: MCF7, 72 h.
The subject of another assay is A549. Put plainly: Antiproliferative activity against human A549 cells incubated for 72 hrs. To be noted: A549, 72 h.
The subject of assay [1] is HT-29. Put plainly: Antiproliferative activity against human HT-29 cells incubated for 72 hrs. To be noted: HT-29, 72 h.
The subject of another assay is PC-3. The experiment in a line: Antiproliferative activity against human PC-3 cells incubated for 72 hrs. To be noted: PC-3, 72 h.
The next assay has as its system WI-38. The experiment in a line: Antiproliferative activity against human WI-38 cells incubated for 72 hrs. To be noted: WI-38, 72 h.
The test system of assay [2] is HT-29. Put plainly: Induction of cell cycle arrest in human HT-29 cells assessed as accumulation of cells at G2/M phase at IC50 measured after 24 hrs by flow cytometry. The format is functional, cell-based.
The test system of assay [3] is HT-29. The experiment in a line: Induction of apoptosis in human HT-29 cells assessed as increase in total apoptotic cells measured after 24 hrs by flow cytometry. The assay is classed as functional, cell-based.
For the next assay, the system named is HUVEC. The experiment in a line: Cytotoxicity against HUVEC cells. To be noted: Homo sapiens.
In assay [4] the target is Vascular endothelial growth factor receptor 2 (Homo sapiens, UniProt P35968). The experiment in a line: Inhibition of VEGFR2 (unknown origin).
Chain of Vascular endothelial growth factor receptor 2 (P35968 whole entry): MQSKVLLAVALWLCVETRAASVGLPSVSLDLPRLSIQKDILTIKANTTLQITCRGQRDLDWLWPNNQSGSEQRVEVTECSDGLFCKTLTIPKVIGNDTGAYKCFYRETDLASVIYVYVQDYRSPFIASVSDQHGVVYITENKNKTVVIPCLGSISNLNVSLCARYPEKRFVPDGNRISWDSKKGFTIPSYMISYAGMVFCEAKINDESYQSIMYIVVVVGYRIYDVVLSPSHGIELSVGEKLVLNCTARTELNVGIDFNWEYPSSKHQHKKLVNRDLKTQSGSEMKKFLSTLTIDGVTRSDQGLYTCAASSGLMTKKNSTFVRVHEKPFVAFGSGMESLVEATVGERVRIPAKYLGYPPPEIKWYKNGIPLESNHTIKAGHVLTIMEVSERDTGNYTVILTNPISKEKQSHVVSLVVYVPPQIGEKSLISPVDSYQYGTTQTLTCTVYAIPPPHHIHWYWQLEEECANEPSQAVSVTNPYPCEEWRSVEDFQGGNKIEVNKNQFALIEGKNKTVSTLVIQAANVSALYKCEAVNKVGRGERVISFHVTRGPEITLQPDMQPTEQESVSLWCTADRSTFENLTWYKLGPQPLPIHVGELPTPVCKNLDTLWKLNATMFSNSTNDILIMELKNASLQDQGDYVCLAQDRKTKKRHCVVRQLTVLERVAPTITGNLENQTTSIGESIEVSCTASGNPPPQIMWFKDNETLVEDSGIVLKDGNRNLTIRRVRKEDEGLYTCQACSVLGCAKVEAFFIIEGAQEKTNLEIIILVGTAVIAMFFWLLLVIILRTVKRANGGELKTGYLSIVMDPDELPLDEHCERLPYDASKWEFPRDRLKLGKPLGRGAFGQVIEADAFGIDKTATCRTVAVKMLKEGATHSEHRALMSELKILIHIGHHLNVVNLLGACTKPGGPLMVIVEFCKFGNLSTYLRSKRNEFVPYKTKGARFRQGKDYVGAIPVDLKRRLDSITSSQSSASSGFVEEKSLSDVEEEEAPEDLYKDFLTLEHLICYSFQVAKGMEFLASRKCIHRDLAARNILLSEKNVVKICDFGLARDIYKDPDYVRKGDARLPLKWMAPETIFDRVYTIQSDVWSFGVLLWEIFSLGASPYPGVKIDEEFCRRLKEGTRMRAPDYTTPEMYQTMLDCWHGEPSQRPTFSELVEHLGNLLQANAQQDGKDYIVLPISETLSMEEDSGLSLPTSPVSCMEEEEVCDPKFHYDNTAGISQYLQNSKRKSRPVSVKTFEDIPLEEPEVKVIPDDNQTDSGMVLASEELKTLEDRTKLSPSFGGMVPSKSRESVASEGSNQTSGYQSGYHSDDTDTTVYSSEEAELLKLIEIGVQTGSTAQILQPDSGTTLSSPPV

The structures appear in SMILES notation. Calls of active or inactive are those of the source. The calls are words filed in the database; no cut-off is given here.

Turning to `N#Cc1c(N=CNc2ccc(Cl)cc2)oc(-c2ccccc2)c1-c1ccccc1`, the IC50 (commonly the concentration that gives 50% inhibition) with HepG2 was found to be 7.28 µM; with MCF7 it was 6.72 µM; in the assay with A549, 6.66 µM; in the assay with HT-29 [1] it was 8.51 µM; in the assay on PC-3 it was 14.5 µM; in the assay on WI-38, 30 µM. Also, the result in the assay with HT-29 [2] and in the assay with HT-29 [3] was Active.
In the assay on HUVEC, `COc1ccc(-c2nc3c4cc(-c5ccc(OC)cc5)oc4ncn3n2)cc1` returned an IC50 of 22.6 µM.
As to `Cc1cccc(-c2nc3c4c(-c5ccccc5)c(-c5ccccc5)oc4ncn3n2)c1`, it took 121 nM to reach half-maximal inhibition in [4] (IC50).
For the compound `N#Cc1c(N=CNc2ccc(Br)cc2)oc(-c2ccccc2)c1-c1ccccc1`, the IC50 amounted to 11.2 µM with HepG2; 9.06 µM in the assay on MCF7; 10.1 µM in the assay with A549; 12.1 µM in the assay with HT-29 [1]; 23.2 µM in the assay on PC-3; 27.4 µM with WI-38.
For `O=C(Nc1ncnc2oc(-c3ccccc3)c(-c3ccccc3)c12)c1ccc([N+](=O)[O-])cc1`, the IC50 in the assay on HepG2 came to 13.1 µM; in the assay on MCF7 it was 11.4 µM; in the assay with A549 it was 14.5 µM; in the assay with HT-29 [1], 21.4 µM; in the assay on PC-3, 22.1 µM; with WI-38 it was 26.5 µM.
For `N=c1c2cc(-c3ccccc3)oc2ncn1/N=C/c1ccc(Br)cc1`, the IC50 in the assay on HUVEC was 61.2 µM.
In turn, `Cc1ccc(-c2nc3c4c(-c5ccccc5)c(-c5ccccc5)oc4ncn3n2)cc1` registered an IC50 in assay [4] of 125 nM.
